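Exposure lasted 48 hours, with cells grown in 96-well plates and compounds tested at five concentrations. GI50: concentration for 50% inhibition of growth. At the TGI there is no net growth.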
Experiments:
Assay in all cases: inhibition of tumour cell growth, NCI panel, 48 h
UACC-62 melanoma = system: UACC-62 melanoma
NCI-H23 lung = system: NCI-H23 lung
OVCAR-8 ovarian = system: OVCAR-8 ovarian
IGROV1 ovarian = system: IGROV1 ovarian
HCT-15 colon = system: HCT-15 colon
SF-295 CNS = system: SF-295 CNS
NCI/ADR-RES ovarian = system: NCI/ADR-RES ovarian
U251 CNS = system: U251 CNS
786-0 renal = system: 786-0 renal
A498 renal = system: A498 renal
CCRF-CEM leukemia = system: CCRF-CEM leukemia
PC-3 prostate = system: PC-3 prostate
MDA-MB-231 breast = system: MDA-MB-231 breast
SK-OV-3 ovarian = system: SK-OV-3 ovarian
COLO 205 colon = system: COLO 205 colon
T-47D breast = system: T-47D breast
SNB-75 CNS = system: SNB-75 CNS
RPMI-8226 leukemia = system: RPMI-8226 leukemia
OVCAR-5 ovarian = system: OVCAR-5 ovarian
HOP-62 NSCLC = system: HOP-62 NSCLC
BT-549 breast = system: BT-549 breast
RXF 393 renal = system: RXF 393 renal
NCI-H522 lung = system: NCI-H522 lung
HT29 colon = system: HT29 colon
MALME-3M melanoma = system: MALME-3M melanoma
OVCAR-3 ovarian = system: OVCAR-3 ovarian
TK-10 renal = system: TK-10 renal
DU-145 prostate = system: DU-145 prostate
SW-620 colon = system: SW-620 colon
SK-MEL-2 melanoma = system: SK-MEL-2 melanoma
K-562 leukemia = system: K-562 leukemia
ACHN renal = system: ACHN renal
SN12C renal = system: SN12C renal
SNB-19 CNS = system: SNB-19 CNS
MDA-MB-435 = system: MDA-MB-435
SK-MEL-28 melanoma = system: SK-MEL-28 melanoma
HL-60(TB) leukemia = system: HL-60(TB) leukemia
HCC-2998 colon = system: HCC-2998 colon
M14 melanoma = system: M14 melanoma
CAKI-1 renal = system: CAKI-1 renal
NCI-H460 lung = system: NCI-H460 lung
SF-268 CNS = system: SF-268 CNS
HOP-92 NSCLC = system: HOP-92 NSCLC
EKVX NSCLC = system: EKVX NSCLC
A549 NSCLC = system: A549 NSCLC
MOLT-4 leukemia = system: MOLT-4 leukemia
NCI-H226 lung = system: NCI-H226 lung
UACC-257 melanoma = system: UACC-257 melanoma
SK-MEL-5 melanoma = system: SK-MEL-5 melanoma
KM12 colon = system: KM12 colon
SF-539 CNS = system: SF-539 CNS
UO-31 renal = system: UO-31 renal
MCF7 breast = system: MCF7 breast
OVCAR-4 ovarian = system: OVCAR-4 ovarian
LOX IMVI melanoma = system: LOX IMVI melanoma
HCT-116 colon = system: HCT-116 colon
HS 578T breast = system: HS 578T breast

SMILES: c1ccc(-c2cn(-c3ccccc3)c(-c3ccccc3)n2)cc1
- GI50 (UACC-62 melanoma): 15.3 µM
- TGI (UACC-62 melanoma): 29.8 µM
- GI50 (NCI-H23 lung): 16.6 µM
- TGI (NCI-H23 lung): 34.9 µM
- GI50 (OVCAR-8 ovarian): 7.89 µM
- TGI (OVCAR-8 ovarian): 20.4 µM
- GI50 (IGROV1 ovarian): 11.9 µM
- TGI (IGROV1 ovarian): 25.2 µM
- GI50 (HCT-15 colon): 3.84 µM
- TGI (HCT-15 colon): 17.8 µM
- GI50 (SF-295 CNS): 12.9 µM
- TGI (SF-295 CNS): 28.4 µM
- GI50 (NCI/ADR-RES ovarian): 19.6 µM
- TGI (NCI/ADR-RES ovarian): 44.9 µM
- GI50 (U251 CNS): 4.08 µM
- TGI (U251 CNS): 15.9 µM
- GI50 (786-0 renal): 2.3 µM
- TGI (786-0 renal): 4.67 µM
- GI50 (A498 renal): 15.4 µM
- TGI (A498 renal): 28.8 µM
- GI50 (CCRF-CEM leukemia): 2.75 µM
- TGI (CCRF-CEM leukemia): 7.06 µM
- GI50 (PC-3 prostate): 17.1 µM
- TGI (PC-3 prostate): 45.6 µM
- GI50 (MDA-MB-231 breast): 18.4 µM
- TGI (MDA-MB-231 breast): 36.5 µM
- GI50 (SK-OV-3 ovarian): 19.3 µM
- TGI (SK-OV-3 ovarian): 34 µM
- GI50 (COLO 205 colon): 10.9 µM
- TGI (COLO 205 colon): 23.4 µM
- GI50 (T-47D breast): 9.3 µM
- TGI (T-47D breast): 26.2 µM
- GI50 (SNB-75 CNS): 14 µM
- TGI (SNB-75 CNS): 27.7 µM
- GI50 (RPMI-8226 leukemia): 2.31 µM
- TGI (RPMI-8226 leukemia): 5.47 µM
- GI50 (OVCAR-5 ovarian): 19.8 µM
- TGI (OVCAR-5 ovarian): 39.7 µM
- GI50 (HOP-62 NSCLC): 2.72 µM
- TGI (HOP-62 NSCLC): 7.88 µM
- GI50 (BT-549 breast): 16 µM
- TGI (BT-549 breast): 30.5 µM
- GI50 (RXF 393 renal): 17.5 µM
- TGI (RXF 393 renal): 33.9 µM
- GI50 (NCI-H522 lung): 13.3 µM
- TGI (NCI-H522 lung): 27.2 µM
- GI50 (HT29 colon): 4.79 µM
- TGI (HT29 colon): 20.4 µM
- GI50 (MALME-3M melanoma): 19.5 µM
- TGI (MALME-3M melanoma): 36.7 µM
- GI50 (OVCAR-3 ovarian): 6.38 µM
- TGI (OVCAR-3 ovarian): 18.6 µM
- GI50 (TK-10 renal): 14.7 µM
- TGI (TK-10 renal): 30.9 µM
- GI50 (DU-145 prostate): 11.6 µM
- TGI (DU-145 prostate): 23.8 µM
- GI50 (SW-620 colon): 1.95 µM
- TGI (SW-620 colon): 3.83 µM
- GI50 (SK-MEL-2 melanoma): 13.9 µM
- TGI (SK-MEL-2 melanoma): 27.2 µM
- GI50 (K-562 leukemia): 3.54 µM
- TGI (K-562 leukemia): 18.7 µM
- GI50 (ACHN renal): 15.4 µM
- TGI (ACHN renal): 28.7 µM
- GI50 (SN12C renal): 15.4 µM
- TGI (SN12C renal): 30.6 µM
- GI50 (SNB-19 CNS): 11.5 µM
- TGI (SNB-19 CNS): 23.9 µM
- GI50 (MDA-MB-435): 7.58 µM
- TGI (MDA-MB-435): 24.7 µM
- GI50 (SK-MEL-28 melanoma): 4.75 µM
- TGI (SK-MEL-28 melanoma): 16.5 µM
- GI50 (HL-60(TB) leukemia): 3.07 µM
- TGI (HL-60(TB) leukemia): 17.9 µM
- GI50 (HCC-2998 colon): 7.82 µM
- TGI (HCC-2998 colon): 20.6 µM
- GI50 (M14 melanoma): 11 µM
- TGI (M14 melanoma): 23.8 µM
- GI50 (CAKI-1 renal): 17.4 µM
- TGI (CAKI-1 renal): 31.6 µM
- GI50 (NCI-H460 lung): 13.8 µM
- TGI (NCI-H460 lung): 29.7 µM
- GI50 (SF-268 CNS): 14.8 µM
- TGI (SF-268 CNS): 29.5 µM
- GI50 (HOP-92 NSCLC): 20.1 µM
- TGI (HOP-92 NSCLC): 50.4 µM
- GI50 (EKVX NSCLC): 15.1 µM
- TGI (EKVX NSCLC): 28.9 µM
- GI50 (A549 NSCLC): 13.2 µM
- TGI (A549 NSCLC): 26.6 µM
- GI50 (MOLT-4 leukemia): 3.16 µM
- TGI (MOLT-4 leukemia): > 100 µM
- GI50 (NCI-H226 lung): 19.8 µM
- TGI (NCI-H226 lung): 37.7 µM
- GI50 (UACC-257 melanoma): 13.4 µM
- TGI (UACC-257 melanoma): 26.1 µM
- GI50 (SK-MEL-5 melanoma): 14.9 µM
- TGI (SK-MEL-5 melanoma): 28.3 µM
- GI50 (KM12 colon): 2.19 µM
- TGI (KM12 colon): 4.67 µM
- GI50 (SF-539 CNS): 14.2 µM
- TGI (SF-539 CNS): 27.9 µM
- GI50 (UO-31 renal): 11 µM
- TGI (UO-31 renal): 22.9 µM
- GI50 (MCF7 breast): 1.59 µM
- TGI (MCF7 breast): 5.76 µM
- GI50 (OVCAR-4 ovarian): 16.4 µM
- TGI (OVCAR-4 ovarian): 31 µM
- GI50 (LOX IMVI melanoma): 1.95 µM
- TGI (LOX IMVI melanoma): 4.29 µM
- GI50 (HCT-116 colon): 1.76 µM
- TGI (HCT-116 colon): 3.27 µM

SMILES: O=C(O)C1=CN(c2ccncc2)C(c2ccco2)=CC1c1ccccc1[N+](=O)[O-] (centres undefined)
- TGI (UACC-62 melanoma): 33.6 µM
- TGI (NCI-H23 lung): 29.1 µM
- TGI (OVCAR-8 ovarian): 54.8 µM
- TGI (IGROV1 ovarian): 5.98 µM
- TGI (HCT-15 colon): 4.75 µM
- TGI (SF-295 CNS): 26.2 µM
- TGI (NCI/ADR-RES ovarian): > 69.8 µM
- TGI (U251 CNS): 24.2 µM
- TGI (786-0 renal): 4.15 µM
- TGI (A498 renal): 28.7 µM
- TGI (CCRF-CEM leukemia): > 100 µM
- TGI (PC-3 prostate): 28 µM
- TGI (MDA-MB-231 breast): 30.6 µM
- TGI (SK-OV-3 ovarian): 33.6 µM
- TGI (COLO 205 colon): 32.9 µM
- TGI (T-47D breast): 25 µM
- TGI (SNB-75 CNS): 22.1 µM
- TGI (RPMI-8226 leukemia): > 24.5 µM
- TGI (OVCAR-5 ovarian): 25.5 µM
- TGI (HOP-62 NSCLC): 32.9 µM
- TGI (BT-549 breast): 26.9 µM
- TGI (RXF 393 renal): 15.5 µM
- TGI (NCI-H522 lung): 25.3 µM
- TGI (HT29 colon): 6.18 µM
- TGI (MALME-3M melanoma): 26.4 µM
- TGI (OVCAR-3 ovarian): 21.2 µM
- TGI (TK-10 renal): 15.9 µM
- TGI (DU-145 prostate): 26.7 µM
- TGI (SW-620 colon): > 31.7 µM
- TGI (SK-MEL-2 melanoma): 34.3 µM
- TGI (K-562 leukemia): > 100 µM
- TGI (ACHN renal): 3.59 µM
- TGI (SN12C renal): 29.1 µM
- TGI (SNB-19 CNS): 27.8 µM
- TGI (HS 578T breast): 62.4 µM
- TGI (MDA-MB-435): > 57.6 µM
- TGI (SK-MEL-28 melanoma): 40.9 µM
- TGI (HL-60(TB) leukemia): > 100 µM
- TGI (HCC-2998 colon): 3.62 µM
- TGI (M14 melanoma): 23.4 µM
- TGI (CAKI-1 renal): 34.1 µM
- TGI (NCI-H460 lung): 36.3 µM
- TGI (SF-268 CNS): 25.9 µM
- TGI (HOP-92 NSCLC): 27.7 µM
- TGI (EKVX NSCLC): 23.8 µM
- TGI (A549 NSCLC): 34.2 µM
- TGI (MOLT-4 leukemia): 14 µM
- TGI (NCI-H226 lung): 38.3 µM
- TGI (UACC-257 melanoma): 5.35 µM
- TGI (SK-MEL-5 melanoma): > 49.6 µM
- TGI (KM12 colon): 3.4 µM
- TGI (SF-539 CNS): 10.3 µM
- TGI (UO-31 renal): 23.3 µM
- TGI (MCF7 breast): 10.7 µM
- TGI (OVCAR-4 ovarian): 28.2 µM
- TGI (LOX IMVI melanoma): 3.85 µM
- TGI (HCT-116 colon): 3.66 µM

Source: PubChem BioAssay (NCI)
